Test results published in patent US20230218577A1, “USE OF HEAT SHOCK PROTEIN INHIBITORS FOR THE TREATMENT OF NEURODEVELOPMENTAL DISORDERS” (The Children's Medical Center Corporation, priority 2020, published 2023).

Legend:
[1] = tested on: Hsp27, Hsp40, Hsp60, Hsp70, Hsp90 expression in Tsc2-sh neurons; assay: Western blot of heat shock proteins in Tsc2-sh neurons; format: cell-based, rat; details: for down-regulating Hsp27 expression: increasing doses for four days DIV 9-13
Excerpt: To investigate the mechanism and explore the pharmacological window by which 17-AGG increases ciliation in Tsc2-knockdown neurons, the heat shock response in these neurons was examined. The heat shock proteins (Hsps) are divided into six families based on their size, and these proteins function in multi-component complexes that are closely inter-related (Chatterjee and Burns, Targeting Heat Shock Proteins in Cancer: A Promising Therapeutic Approach; Int J Mol Sci 18 (2017)). In addition, while most of them are constitutively expressed, some are expressed only under stress (Garrido et al., Heat shock proteins 27 and 70: anti-apoptotic proteins with tumorigenic properties; Cell Cycle 5, 2592-2601 (2006)). Expression levels of Hsp90 and other HSP family members at DIV13 and DIV20 was assessed following four days of treatment with different concentrations of the Hsp90 inhibitor 17-AGG. In the absence of any compound, Tsc2-knockdown neurons had increased levels of the small heat shock protein 27 (Hsp27) with no change in Hsp90, Hsp70, Hsp60 and Hsp40 (FIGS. 5A-L). […] In addition, there was no change observed in Hsp27 expression due to treatment with 17-AGG in Tsc2 knockdown neurons at DIV20, consistent with the lack of effect on cilia at that age (FIGS. 5G-H, FIG. 10F). Inhibition of the Hsp90 pathway by 17-AGG was confirmed by induction of Hsp40 and Hsp70, consistent with the reported release of Hsp90-dependent inhibition on HSF1 (Zou et al., Repression of heat shock transcription factor HSF1 activation by HSP90 (HSP90 complex) that forms a stress-sensitive complex with HSF1; Cell 94, 471-480 (1998)) (FIGS. 5A, C, E, G, K). It was then evaluated whether Hsp27 upregulation was linked to mTORC1 hyper-activation. […] These findings indicate that Hsp27 contributes to the mTORC1-dependent mechanism implicated in defective ciliation under loss of neuronal TSC1/2 activity.
To test whether Hsp27 down-regulation may contribute to restoring ciliation in Tsc2-deficient neurons, Hsp27 was knocked-down by hspB1 gene silencing using lentiviral expression of RFP-tagged Hsp27shRNA (RFP-Hsp27sh) or scrambled shRNA as a control (RFP-C).
The effect of CUDC-305 and NPV-HSP-990 on Hsp27 expression was then tested.
Protein extracts were lysed in 1×SDS (22 mM Tris-HCl pH 6.8, 4% Glycerol, 0.8% SDS, 1.6% β-mercaptoethanol, bromphenol blue) sample buffer, heated to 95° C. for 5 min and stored frozen. Before being subjected to discontinuous gel electrophoresis, equal amounts of all protein lysates were verified by Coomassie gel staining. For immunoblotting, equal amounts of protein lysates were subjected to SDS-PAGE, transferred to Immobilon-P Millipore and incubated in LI-COR blocking solution at RT for 2 hrs. Primary and secondary antibodies were diluted in LI-COR blocking solution to the appropriate concentrations. LI-COR IRDye secondary antibodies were used. All images were acquired using the LI-COR Odyssey Classic imager and associated Image Studio Lite analysis software (version 5.2.5). Quantification of protein expression was performed by densitometry scans of immunoblots using LI-COR Odyssey imaging system.
Western blot quantifications were performed by protein normalization using GAPDH as loading control. Level of phosphorylated proteins was expressed as the ratio of phosphorylated/total level after GAPDH normalization. Low sample size datasets were tested for normality and when appropriate they were analyzed with non-parametric tests. IC50 values were calculated using the nonlinear regression equation “dose-response curves—Inhibition” of GraphPad PRISM. Data were expressed as percent of vehicle-treated Tsc2-sh neurons which were considered 100% and drug's concentrations were transformed to logarithmic 10 scale. EC50 values were calculated using the nonlinear regression equation “dose-response curves—Stimulation” of Prism. […]

[2] = tested on: Tsc2-sh neurons; assay: Toxicity: number of nuclei per field in Tsc2-sh neurons; format: cell-based, rat; details: four days (DIV9-13), nuclei stained at DIV13
Protocol: HSP90 inhibitors were tested to determine their effect on ciliation in TSC2-deficient neurons. Tsc2 was knocked down using an shRNA in primary rat neurons. The neurons were then treated with different doses of either CUDC-305 or NPV-HSP-990. To assess toxicity for CUDC-305, Tsc2-sh neurons were treated with increasing concentrations (6 nM, 12.5 nM, 25 nM, 50 nM, 100 nM, 200 nM, 400 nM) of CUDC-305 for four days (DIV9-13) and then stained for nuclei at DIV13 to determine the number of nuclei per field. […] The effect of ciliation of Tsc2-sh neurons after treatment with CUDC-305 was then examined.
Another HSP90 inhibitor, NPV-HSP-990, was examined for its effect on ciliation in TSC2-deficient neurons. To assess toxicity for NPV-HSP-990, Tsc2-sh neurons were treated with increasing concentrations (0.05 nM, 0.16 nM, 0.5 nM, 1.5 nM, 4.4 nM, 13.3 nM, 40 nM) of NPV-HSP-990 for four days (DIV9-13) and then stained for nuclei at DIV 13 to determine the number of nuclei per field.

[3] = Tsc2-sh neurons, four-day dose curve

COc1cccc(-c2cc(F)ccc2[C@H]2Cc3nc(N)nc(C)c3C(=O)N2)n1 [NPV-HSP-990, (R)-2-amino-7-((R)-4-fluoro-2-(6-methoxypyridin-2-yl)phenyl)-4-methyl-7,8-dihydropyrido[4,3-d]pyrimidin-5(6H)-one] was tested, and the “down-regulating Hsp27 expression” value ([1]; Tsc2-sh neurons) was “Neither compound had a significant effect” and the “doses at which the number of nuclei began to reduce (suggestive of toxicity)” value [2] was “above 4.4 nM”.

In the case of C=CCNC1=C2C[C@@H](C)C[C@H](OC)[C@H](O)[C@@H](C)/C=C(\C)[C@H](OC(N)=O)[C@@H](OC)C=C/C=C(\C)C(=O)NC(=CC1=O)C2=O [17-AGG, 3 S,5S,6R,7S,8E,10R,11S,12E,14E)-21-(allylamino)-6-hydroxy-5,11-dimethoxy-3,7,9,15-tetramethyl-16,20,22-trioxo-17-azabicyclo[16.3.1]docosa-8,12,14,18,21-pentaen-10-yl] carbamate], the Hsp40 expression [1, 3] is reported as “induction”, the Hsp70 expression [1, 3] is reported as “induction” and the “aberrant Hsp27 expression” value ([1]; Tsc2 knockdown cultures at DIV13, four days of 17-AGG ranging from 5-450 nM) is reported as “reduced”. The Hsp27 expression ([1]; Tsc2 knockdown neurons at DIV20, four days of treatment) was “no change”.

In the case of CO[C@H]1C[C@@H]2CC[C@@H](C)[C@@](O)(O2)C(=O)C(=O)N2CCCC[C@H]2C(=O)O[C@H]([C@H](C)C[C@@H]2CC[C@@H](O)[C@H](OC)C2)CC(=O)[C@H](C)/C=C(\C)[C@@H](O)[C@@H](OC)C(=O)[C@H](C)C[C@H](C)/C=C/C=C/C=C/1C [rapamycin], the Hsp27 upregulation ([1]; Tsc2-sh neurons, 20 nM rapamycin between DIV9-13, measured at DIV13) is reported as “reduced”.

With CN(C)c1cc2c(cc1Sc1nc3c(N)nccc3n1CCNCC(C)(C)C)OCO2 [CUDC-305, 4-amino-2-[[6-(dimethylamino)-1,3-benzodioxol-5-yl]thio]-N-(2,2-dimethylpropyl)-1H-imidazo[4,5-c]pyridine-1-ethanamine] the “down-regulating Hsp27 expression” value ([1]; Tsc2-sh neurons) was “Neither compound had a significant effect” and the “doses at which the number of nuclei began to reduce (suggestive of toxicity)” value [2] was “above 100 nM”.
